Patent publication US20140154702A1, “Methods For Treating Cancer Using Combination Therapies” (ENDOCYTE, INC., priority 2012, published 2014)
Entries after “also recorded” stand apart in the source; their conditions may differ. Like-named read-outs stand apart in the source and are kept apart here.

Key:
Type in all cases: cell-based
KB cells [1] = assay: 3H-EC0531 uptake study, KB cells; details: for effect of inhibitor on nonspecific uptake of 3H-EC0531: 1 μM EC0531 plus inhibitor, 100 μM FA, 2 hours at 37° C.
Method: (§1) To determine non-FR-targeted uptake, 100 μM FA was included in the uptake solutions. Cells were incubated with 0.5 mL of uptake solution for 2 h at 37° C., washed 3 times with ice-cold PBS, and were solubilized in 0.5 mL 1% SDS in PBS, pH 7.4. Cell lysates (450 μL) were added to 3 mL Ecolite+scintillation cocktail and counted in a liquid scintillation counter. Protein concentrations of the remaining lysates were determined using the BCA Protein Assay (Pierce, Rockford, Ill.). Molecules per cell were calculated based on DPM values and previously determined cellular protein conversion factors (2.82×10^−7 and 2.23×10^−7 mg protein per cell for KB and A549, respectively).
(§2) FA at a concentration of 100 μM was used as a competitor to determine non-FR-specific uptake in KB cells. Wells were then washed 3 times with 1 mL of ice-cold PBS, pH 7.4 and were processed for LSC analysis as described above.
(§3) Wells were then washed 3 times with 1 mL of ice-cold PBS, pH 7.4 and were processed for LSC analysis as described above.

A549 cells [2] = assay: 3H-EC0531 uptake study, A549 cells; details: for effect of inhibitor on nonspecific uptake of 3H-EC0531: 1 μM EC0531 plus inhibitor, 2 hours at 37° C.
Method: as §1, §2, §3

A549 cells [3] = assay: Inhibition of non-FR-specific activity (cytotoxicity) of EC0531 by co-administered inhibitors, A549 cells; details: sulfasalazine (1 mM), glutamate (5 mM) with increasing EC0531, 2 hours, chase to 72 hours, FIG. 14
Method: Cells were then treated as described above to determine ^3H-thymidine incorporation. The inhibition of non-FR-specific activity (i.e., cytotoxicity) was evaluated for each system xc^− inhibitor.

A549 cells [4] = assay: Extracellular thiol activity (DTNB method), A549 cells; details: for effect on release of extracellular thiols (SH concentration): glutamate (5 mM), quisqualic acid (0.3 mM and 1 mM), 2 hours at 37° C., FIG. 12; for effect of added thiol on extracellular thiol activity (SH concentration): added to SH-free RPMI: GSSG (1.6 μM), cysteine (189 μM), 2 hours, FIG. 11
KB cells [5] = assay: Inhibition of non-FR-specific activity (cytotoxicity) of EC0531 by co-administered inhibitors, KB cells; details: for IC50: read-out: IC50 of inhibition of non-FR-specific activity of EC0531
Method: Extracellular thiol activity was determined using the DTNB method described above. […] Cells were seeded in 24-well tissue culture-treated plates at 1×10^5 cells per well and allowed to attach overnight at 37° C. […] To assess non-FR-targeted activity in FR+cells, 100 μM FA was included as a competitor along with the drug in the treatment solutions. Cells were incubated for 2 hours in the presence of drug, washed 3 times with media, and then chased in 0.5 mL of FDRPMI/HIFBS (FR+cells) or RPMI+FA/HIFBS (FR−cells) to 72 h at 37° C. Spent medium was then aspirated from the wells, and cells were incubated with 1 μCi/mL ^3H-thymidine for 4 hours at 37° C., washed two times with PBS, pH 7.4, then treated with 0.4 mL 5% trichloroacetic acid per well. After 15 minutes, the trichloroacetic acid was aspirated from the wells, and cells were solubilized in 0.5 mL 0.25 N sodium hydroxide. Each sample (450 μL) was transferred to a scintillation vial containing 3 mL of Ecolite+scintillation cocktail and then counted in a liquid scintillation counter (LSC). Final results were expressed as percentage of ^3H-thymidine incorporation relative to an untreated control (non-competed groups) or FA control (competed groups).
The inhibition of non-FR-specific activity (i.e., cytotoxicity) was evaluated for each thiol inhibitor.
Cells were seeded in 24-well tissue culture-treated plates at 1×10^5 cells per well and allowed to attach overnight at 37° C. […] Cells were incubated for 2 hours in the presence of drug, competitor, and inhibitor, washed 3 times with media, and then chased in 0.5 mL of FDRPMI/HIFBS to 72 hours at 37° C. Cells were then treated as described above to determine ^3H-thymidine incorporation. Final results were expressed as percentage of ^3H-thymidine incorporation relative to an untreated control (non-competed groups) or FA control (competed groups).
The inhibition of non-FR-specific activity (i.e., cytotoxicity) was evaluated. KB cells were seeded in 24-well tissue culture-treated plates at 1×10^5 cells per well in FDRPMI/HIFBS and allowed to attach to the plates overnight at 37° C. […] Cells were incubated for 2 hours in the presence of drug, FA competitor, and inhibitor, washed 3 times with media, then chased in 0.5 mL of FDRPMI/HIFBS to 72 hours at 37° C. Cells were then treated as described above to determine ^3H-thymidine incorporation. Final results were expressed as percentage of ^3H-thymidine incorporation relative to an untreated control (non-competed groups) or FA control (competed groups). […]

KB cells [6] = assay: as above; details: KB cells pre-treated with inhibitor prior to EC0531 and folic acid; DTNB (100 μM), NCEM (10 mM); FIG. 6
[7] = KB cells, co-administered with EC0531 (1 μM) and folic acid (100 μM)
[8] = KB cells, co-administered with EC0531 (1 μM) and folic acid (100 μM), 2 hours, 72 hour chase
[9] = inhibitor concentration 3 mM, co-administration with EC0531
[10] = inhibitor concentration 100 μM, co-administration with EC0531
[11] = DTNB 10 μM and 100 μM, excess folic acid, FIG. 8

CN(Cc1cnc2nc(N)nc(N)c2n1)c1ccc(C(=O)N[C@@H](CCC(=O)O)C(=O)O)cc1 [methotrexate]
effect of inhibitor on nonspecific uptake of 3H-EC0531 (KB cells [1]): ineffective
effect of inhibitor on nonspecific uptake of 3H-EC0531 (A549 cells [2]): ineffective

N[C@@H](CCC(=O)O)C(=O)O [glutamate]
inhibition of non-FR-specific activity of EC0531 (in words) (A549 cells [3]): inhibit
effect on release of extracellular thiols (SH concentration) (A549 cells [4]): significantly reduce

O=C(O)c1cc(/N=N/c2ccc(S(=O)(=O)Nc3ccccn3)cc2)ccc1O [sulfasalazine]
effect of inhibitor on nonspecific uptake of 3H-EC0531 (KB cells [1]): reduced
inhibition of non-FR-specific activity of EC0531 (in words) (A549 cells [3]): inhibit; also recorded: greater inhibition
inhibition of non-FR-specific activity of EC0531 (in words) (KB cells [5]; [7]): dose-responsive inhibition
IC50 (KB cells [5]; [8]): 170 µM
effect of inhibitor on nonspecific uptake of 3H-EC0531 (A549 cells [2]): reduced

oxidized glutathione [GSSG]
Inhibition of EC0531 Nonspecific Activity (KB cells [5]): Full inhibition
effect of added thiol on extracellular thiol activity (SH concentration) (A549 cells [4]): no effect

O=C1OC(c2ccc(O)c(S(=O)(=O)O)c2)(c2ccc(O)c(S(=O)(=O)O)c2)c2c(Br)c(Br)c(Br)c(Br)c21 [BSP]
Inhibition of EC0531 Nonspecific Activity (KB cells [5]): <50% inhibition

O=S(=O)([O-])CCSSCCS(=O)(=O)[O-].[Na+].[Na+] [Dimesna, 2,2′-dithio-bis-ethanesulfonate]
Inhibition of EC0531 Nonspecific Activity (KB cells [5]): Full inhibition

N[C@@H](CS)C(=O)O [Cysteine, cysteine]
effect of added thiol on extracellular thiol activity (SH concentration) (A549 cells [4]): responsible for stimulation

N[C@@H](Cn1oc(=O)[nH]c1=O)C(=O)O [quisqualic acid]
effect on release of extracellular thiols (SH concentration) (A549 cells [4]): significantly reduce; also recorded: dose-dependent reduction

methoxy-PEG5000-vinylsulfone
Inhibition of EC0531 Nonspecific Activity (KB cells [5]; [9]): >50% inhibition

folate-maleimide
inhibition of non-FR-specific activity of EC0531 (in words) (KB cells [5]; [7]): dose-responsive inhibition
Inhibition of EC0531 Nonspecific Activity (KB cells [5]; [10]): Full inhibition
IC50 (KB cells [5]; [8]): 3.5 µM

O=S(=O)(O)c1cc(N=C=S)ccc1C=Cc1ccc(N=C=S)cc1S(=O)(=O)O [DIDS]
effect of inhibitor on nonspecific uptake of 3H-EC0531 (KB cells [1]): reduced
Inhibition of EC0531 Nonspecific Activity (KB cells [5]): Full inhibition
effect of inhibitor on nonspecific uptake of 3H-EC0531 (A549 cells [2]): reduced

O=C(O)CCN1C(=O)C=CC1=O [NCEM, N-(2-carboxyethyl)maleimide]
effect of inhibitor on nonspecific uptake of 3H-EC0531 (KB cells [1]): reduced
inhibition of non-FR-specific activity of EC0531 by pre-treatment of cells (KB cells [6]): not effective
inhibition of non-FR-specific activity of EC0531 (in words) (KB cells [5]; [7]): dose-responsive inhibition
Inhibition of EC0531 Nonspecific Activity (KB cells [5]; [10]): Full inhibition
IC50 (KB cells [5]; [8]): 17 µM
effect of inhibitor on nonspecific uptake of 3H-EC0531 (A549 cells [2]): reduced

O=S(=O)([O-])c1cc[c]([Hg][Cl])cc1 [pCMBS, p-chloromercuribenzene sulfonate]
Inhibition of EC0531 Nonspecific Activity (KB cells [5]; [10]): >50% inhibition

O=C(O)c1cc(SSc2ccc([N+](=O)[O-])c(C(=O)O)c2)ccc1[N+](=O)[O-] [DTNB, 5,5′-dithiobis(2-nitrobenzoic acid)]
effect of inhibitor on nonspecific uptake of 3H-EC0531 (KB cells [1]): reduced
effect of inhibitor on nonspecific uptake of 3H-folic acid (KB cells [1]; [11]): mostly unaffected
inhibition of non-FR-specific activity of EC0531 by pre-treatment of cells (KB cells [6]): not effective
inhibition of non-FR-specific activity of EC0531 (in words) (KB cells [5]; [7]): dose-responsive inhibition
Inhibition of EC0531 Nonspecific Activity (KB cells [5]; inhibitor concentration 10 μM, co-administration with EC0531): Full inhibition
IC50 (KB cells [5]): 4.6 µM
effect of inhibitor on nonspecific uptake of 3H-EC0531 (A549 cells [2]): reduced
effect of inhibitor on nonspecific uptake of 3H-folic acid (A549 cells [2]; [11]): mostly unaffected

O=C(O[C@@H]1Cc2c(O)cc(O)cc2O[C@@H]1c1cc(O)c(O)c(O)c1)c1cc(O)c(O)c(O)c1 [EGCg, epigallocatechin gallate]
Inhibition of EC0531 Nonspecific Activity (KB cells [5]; 100 µM): >50% inhibition

N[C@@H](CCC(=O)N[C@@H](CSCC(=O)Nc1ccc([As](O)O)cc1)C(=O)NCC(=O)O)C(=O)O [EC1277 (GSAO), 4-(N—(S-glutathionylacetyl)amino) phenylarsonous acid]
Inhibition of EC0531 Nonspecific Activity (KB cells [5]; [9]): Full inhibition
